From PMC4774972, “Activity and Predicted Nephrotoxicity of Synthetic Antibiotics Based on Polymyxin B” (Journal of Medicinal Chemistry, 2016)
Values after ≈ are worked out from the molar mass of the structure shown. Like-named read-outs stand apart in the source and are kept apart here. Numbered stars: 1 amine (or outer) side, 2 acyl side, 3 side chain; on linkers, the order of the positions; unused ones are H or OH. Bridge positions count the residues as written; N and C are the ends. Square brackets hold non-standard residues; d marks the D form. Peptide text beside a SMILES is read from it. * marks the point of attachment. Benzoyl(4-Ph) = O=C(c1ccc(-c2ccccc2)cc1)*; Phe(4-NH2) = Nc1ccc(C[C@H](N)C(=O)O)cc1; dGly(nOct) = CCCCCCCC[C@@H](N)C(=O)O; X1 = c1ccc(-c2ccc(N*)cc2)cc1; Octanoyl = CCCCCCCC(=O)*; Dab = NCC[C@H](N)C(=O)O; CO = O=C([*:1])[*:2]

Experiments:
HepG2 = conditions: CC50 HepG2 (µM)
E. coli ATCC 25922 = conditions: MIC E. coli ATCC 25922 (µg/mL)
K. pneumoniae ATCC 13883 = conditions: MIC K. pneumoniae ATCC 13883 (µg/mL)
[1] = test system: A. baumannii CI Ptyela 100734512:2, PmxR; conditions: MIC A. baumannii CI Ptyela 100734512:2, PmxR (µg/mL)
[2] = test system: S. aureus ATCC 25923, MSSA; conditions: MIC S. aureus ATCC 25923, MSSA (µg/mL)
[3] = test system: P. aeruginosa PA9704, PmxR; conditions: MIC P. aeruginosa PA9704, PmxR (µg/mL)
[4] = test system: K. pneumoniae CI Koprana 100650661:1, PmxR; conditions: MIC K. pneumoniae CI Koprana 100650661:1, PmxR (µg/mL)
[5] = test system: K. pneumoniae CI 138-16357-20362, PmxR; conditions: MIC K. pneumoniae CI 138-16357-20362, PmxR (µg/mL)
P. aeruginosa ATCC 27853 = conditions: MIC P. aeruginosa ATCC 27853 (µg/mL)
[6] = test system: K. pneumoniae CI Koprana 100650661:1, PmxR; test: microbe, parasite or virus in culture; type: cell-based, Klebsiella pneumoniae; conditions: carbapenem & polymyxin resistant clinical isolate; MHB, 5 × 10^5 CFU/mL, 18 h at 37 °C
Protocol: (§1) Bacteria were either obtained from American Type Culture Collection (ATCC; Manassas, VA, USA) or independent academic clinical isolate collections, as listed in Table S2. Bacteria were cultured in nutrient broth (NB; Bacto Laboratories, catalog no. 234000) or Muller Hinton broth (MHB; Bacto Laboratories, catalog no. 211443) at 37 °C overnight with shaking (∼180 rpm). A sample of each culture was then diluted 50-fold in fresh MHB and incubated at 37 °C for 1.5–3 h with shaking (∼180 rpm). Compound stock solutions were prepared as 0.64 or 2.56 mg/mL in water. The compounds, at twice the final desired concentration, were serially diluted 2-fold across the wells of 96-well plates (Polystyrene, Corning, catalogue No. 3370). Mid log phase bacterial cultures (after 1.5–3 h incubation) were diluted to a final concentration of 5 × 10^5 colony forming units (CFU)/mL, and 50 μL was added to each well giving a final compound concentration range of 32 μg/mL to 0.015 μg/mL (128–0.06 μg/mL for colistin and polymyxin B against the polymyxin resistant clinical isolates). MICs were determined visually after 18 h of incubation at 37 °C, with the MIC defined as the lowest compound concentration at which no bacterial growth was visible.
(§2) Table S2. Bacterial strains used for Minimum Inhibitory Concentration (MIC) […]
(§3) Organism Strain Strain description Strain Source
(§4) Escherichia coli ATCC 25922 FDA strain Seattle 1946 ATCC
(§5) Klebsiella pneumoniae ATCC 13883 Control strain ATCC
(§6) Klebsiella pneumoniae ATCC 700603 Multi-drug resistant ATCC
(§7) Klebsiella pneumoniae BAA-2146 Metallo-beta-lactamase- ATCC
(§8) Acinetobacter baumannii ATCC 19606 Type strain ATCC
(§9) Pseudomonas aeruginosa ATCC 27853 Type strain ATCC
(§10) Pseudomonas aeruginosa FADDI-PA070 Clinical isolate, Nation and Li labs, polymyxin resistant Monash University
(§11) Clinical isolate, Wang Hengzhuang, Pseudomonas aeruginosa PA9704 polymyxin resistant University Hospital of […]
(§12) Ptyela Clinical isolate, Ilias Karaiskos and Acinetobacter baumannii Carbapenem & Helen Giamarellou
(§13) Clinical isolate, Medicine, Hygeia
(§14) Klebsiella pneumoniae Koprana Carbapenem, & General Hospital, […]
(§15) Clinical isolate, (Instituto Dante […]
(§16) polymyxin resistant Cardiologia, São […]

[7] = test system: K. pneumoniae CI 138-16357-20362, PmxR; test: microbe, parasite or virus in culture; type: cell-based, Klebsiella pneumoniae; conditions: carbapenem & polymyxin resistant clinical isolate; MHB, 5 × 10^5 CFU/mL, 18 h at 37 °C
Protocol: as §1, §2, §3, §4, §5, §6, §7, §8, §9, §10, §11, §12, §13, §14, §15, §16

[8] = test system: P. aeruginosa FADDI-PA070, PmxR; conditions: MIC P. aeruginosa FADDI-PA070, PmxR (µg/mL)
A. baumannii ATCC 19606 = conditions: MIC A. baumannii ATCC 19606 (µg/mL)
HepG2 cells = test: Cytotoxicity assay (resazurin assay); type: cell-based, human; conditions: 4000 cells/well, 24 h incubation with compound, fluorescence 560/590
Protocol: Cytotoxicity to HEK293 and HepG2 cells was determined using the resazurin assay.[67],[68] […] Compounds were then added into each well. After 24 h incubation, 5 μM resazurin was added per well and incubated at 37 °C for 2 h. Fluorescence intensity was then read using a Polarstar Omega with excitation/emission 560/590. The data were then analyzed using GraphPad Prism 6 software. CC50 values were determined using GraphPad Prism 6 software (Inc. La Jolla, CA).

[9] = test system: S. aureus ATCC 25923, MSSA; test: microbe, parasite or virus in culture; type: cell-based, Staphylococcus aureus; conditions: Staphylococcus aureus, 18 h, read-out: MIC S. aureus ATCC 25923, MSSA
Protocol: as §1, §2, §3, §4, §5, §6, §7, §8, §9, §10, §11, §12, §13, §14, §15, §16

[10] = test system: primary human renal proximal tubule epithelial (hPT) cells; test: Nephrotoxicity assay, LDH release; type: cell-based; conditions: for LDH release CC50: primary human kidney cells
Excerpt: (§17) Primary human renal proximal tubule epithelial (hPT) cells were isolated and used for in vitro prediction of drug-induced nephrotoxicity[63],[64],[69] by measuring the release of metabolism enzymes, LDH and GGT, as previously described.[70]

[11] = test system: primary human renal proximal tubule epithelial (hPT) cells; test: Nephrotoxicity assay, GGT release; type: cell-based; conditions: for GGT release CC50: primary human kidney cells
Excerpt: as §17

[12] = at 100 μg/mL in the primary kidney cells

Row | Structure (SMILES) | CC50 (HepG2) [µM] | MIC (E. coli ATCC 25922) [µg/mL] | MIC (K. pneumoniae ATCC 13883) [µg/mL] | MIC [1] [µg/mL] | MIC [2] [µg/mL] | MIC [3] [µg/mL] | MIC [4] [µg/mL] | MIC [5] [µg/mL] | MIC (P. aeruginosa ATCC 27853) [µg/mL] | MIC K. pneumoniae CI Koprana 100650661:1, PmxR [6] [µg/mL] | MIC K. pneumoniae CI 138-16357-20362, PmxR [7] [µg/mL] | MIC [8] [µg/mL] | MIC (A. baumannii ATCC 19606) [µg/mL] | HepG2 - CC50 (HepG2 cells) [µM] | MIC [9] [µg/mL] | release of LDH [10, 12] | LDH release CC50 [10] [µg/mL] | release of GGT [11, 12] | GGT release CC50 [11] [µg/mL]
1 | CCCCCCCC[C@H]1NC(=O)[C@H](CCN)NC(=O)[C@@H](NC(=O)[C@H](CCN)NC(=O)[C@@H](NC(=O)[C@H](CCN)NC(=O)CCCCCCC)[C@@H](C)O)CCNC(=O)[C@H]([C@@H](C)O)NC(=O)[C@H](CCN)NC(=O)[C@H](CCN)NC(=O)[C@H](CC(C)C)NC1=O (Octanoyl-[Dab]T[Dab][Dab][Dab][dGly(nOct)]L[Dab][Dab]T; lactam 4-C) | 254 | 2 (≈ 1.65 µM) | 2 (≈ 1.65 µM) | 16 (≈ 13.2 µM) | 16 (≈ 13.2 µM) | 8 (≈ 6.6 µM) | 16 (≈ 13.2 µM) | 16 (≈ 13.2 µM) | 2 (≈ 1.65 µM) | – | – | – | – | – | – | – | – | – | –
2 | CCCCCCCC(=O)N[C@@H](CCN)C(=O)N[C@H](C(=O)N[C@@H](CCN)C(=O)N[C@H]1CCNC(=O)[C@H]([C@@H](C)O)NC(=O)[C@H](Cc2ccc(N)cc2)NC(=O)[C@H](CCN)NC(=O)[C@H](CC(C)C)NC(=O)[C@@H](Cc2ccccc2)NC(=O)[C@H](CCN)NC1=O)[C@@H](C)O [Compound 20] (Octanoyl-[Dab]T[Dab][Dab][Dab][dF]L[Dab][Phe(4-NH2)]T; lactam 4-C) | > 300 | – | > 32 | > 32 | > 32 | > 32 | > 32 | > 32 | – | >32 | >32 | > 32 | > 32 | – | – | – | – | – | –
3 | CN[C@@H](CC(C)C)C(=O)N[C@H]1C(=O)N[C@@H](CC(N)=O)C(=O)N[C@H]2C(=O)N[C@H]3C(=O)N[C@H](C(=O)N[C@@H](C(=O)O)c4cc(O)cc(O)c4-c4cc3ccc4O)[C@H](O)c3ccc(c(Cl)c3)Oc3cc2cc(c3O[C@H]2O[C@@H](CO)[C@H](O)[C@@H](O)[C@@H]2O[C@@H]2C[C@@](C)(N)[C@@H](O)[C@@H](C)O2)Oc2ccc(cc2Cl)[C@H]1O [Vancomycin, reference compound] | – | – | – | – | – | – | – | – | – | – | – | – | – | >300 | 2 (≈ 1.38 µM) | – | – | – | –
4 | CC(C)C[C@@H]1NC(=O)[C@@H](Cc2ccccc2)NC(=O)[C@H](CCN)NC(=O)[C@@H](NC(=O)[C@H](CCN)NC(=O)[C@@H](NC(=O)[C@H](CCN)NC(=O)c2ccc(-c3ccccc3)cc2)[C@@H](C)O)CCNC(=O)[C@H]([C@@H](C)O)NC(=O)[C@H](CCN)NC(=O)[C@H](CCN)NC1=O [Compound 10] ({Benzoyl(4-Ph)}-[Dab]T[Dab][Dab][Dab][dF]L[Dab][Dab]T; lactam 4-C) | 298 | – | – | – | > 32 | > 32 | > 32 | > 32 | – | >32 | >32 | – | – | – | – | almost no release | >128 | almost no release | >128
5 | CC(C)C[C@@H]1NC(=O)[C@@H](Cc2ccccc2)NC(=O)[C@H](CCN)NC(=O)[C@@H](NC(=O)[C@H](CCN)NC(=O)[C@@H](NC(=O)[C@H](CCN)NC(=O)Nc2ccc(-c3ccccc3)cc2)[C@@H](C)O)CCNC(=O)[C@H]([C@@H](C)O)NC(=O)[C@H](CCN)NC(=O)[C@H](CCN)NC1=O [Compound 15] ({X1-CO}-[Dab]T[Dab][Dab][Dab][dF]L[Dab][Dab]T; lactam 4-C) | 316 | – | – | – | – | – | – | > 32 | – | – | >32 | – | – | – | – | – | >128 | – | >128
